Results: US20070031509A1, “Breakthrough to cure psoriasis, psoriatic arthritis and treatment of other unrelated skin disorders, and external rectal and genital itching” (priority 2005, published 2007)

Experiments:
eczema = test: Earlier use of urea on eczema symptoms of type 2 diabetic patient; format: in vivo, human; settings: high blood-sugar level, 16 years ago
psoriasis = test: Comparison of performance of OTCs, zinc oxide and copper lactate on silvery patches L6-L8; format: in vivo, human
Source text: As mentioned above, the presence and growth of L6, L7 and L8 lesions gave me an opportunity to compare the performance of my invention against the readily available OTCs. As mentioned earlier, coal tar, sea salts and several combinations of acids are used for treatment of psoriasis and eczema.
From June 1966 to March 1996, The U. S. Department of Interior (DOI) employed me as a research engineer. During the course of my employment with DOI, I had conducted research in more than 100 coal and salt mines. I have a sound knowledge of the properties of coal and salts. The following comments are based on my experimentations and my in-depth knowledge of the physical and chemical properties of these minerals. Furthermore, based on my own knowledge and past experience with the OTCs, I became suspicious of the validity of the claims made by the manufactures of OTCs containing coal tar and sea salts. Therefore, I designed a simple experimental procedure to compare effectiveness of readily available OTCs to treat psoriasis. Experimental procedure: Before each topical application, each of the three silvery patches was washed with warm soapy water and towel dried. Each OTC product was gently massaged onto all three silvery patches three times daily. Topical applications were made in accordance with the drug manufacturer's recommendations. At the end of four hours, physical observations were made. Silvery patches were again washed and dried and medication was applied again. Each product was tested for a period of four days. After completion of one test series and start of another, silvery patches were left alone for a period of four days to avoid carryover affects from one product to another.
Immune suppressing medications such as Elidel and Protopic and all other prescription drugs known to potentially contribute to cancer were excluded from this test series. Prescription phototherapy and systemics having different course of action and generally, they are not recommended for mild cases of psoriasis. Therefore, these medications were beyond the scope of this study.
Therefore, based on prior knowledge, for extension of this study, an ointment containing 40% zinc oxide was selected for testing.
8. Copper Lactate: Even though during this testing phase, no bleeding points were developed, it was still decided to explore the impact of copper lactate alone on psoriatic lesions. Copper lactate for this test series was produced by reacting yogurt in a copper container rather than a brass utensil.

[1] = after ten days of daily applications

NC(N)=O [Urea]
treatment of dry, flaky, cracked, and bleeding symptoms of eczema (eczema): totally ineffective

CC(O)C(=O)[O-].CC(O)C(=O)[O-].[Cu+2] (stereo not drawn) [copper lactate]
reduction in psoriatic lesions (psoriasis; after seven days of topical applications): 20%
red thickened skin of the lesion whose silvery patch came off (psoriasis; [1]): completely disappeared
reduction in size of remaining two silvery lesions (psoriasis; [1]): 20%
silvery patch of one of the psoriatic lesions (psoriasis; [1]): flaked off
swelling (psoriasis; after the first day of applications, no bleeding points): significant reduction
pain and swelling (psoriasis; after three days of applications): completely gone
silvery scales (psoriasis; after three days of topical application): fell off
silvery patches on the remaining two lesions (psoriasis; further topical applications): have not eliminated
